Test results published in patent publication US20250129121A1, “POLYPEPTIDE, PRODUCT INCLUDING POLYPEPTIDE FOR INHIBITING FUSOBACTERIUM NUCLEATUM, OR DRUG FOR PREVENTING COLORECTAL CANCER” (priority 2022, published 2025).
In brackets after ≈: the same amount, converted by molar mass. Where a SMILES comes first, the peptide text is derived from it.

Key:
[1] = tested on: Escherichia coli Nissile 1917; format: cell-based; conditions: Nissile 1917, 20 h
Method: (§1) A. Each polypeptide was prepared into a specified stock solution for later use. Minimum inhibitory concentrations (MICs) of the polypeptides P1 to P12 were determined by a broth microdilution method. With 0.01% acetic acid (including 0.2% of bovine serum albumin (BSA)) as a diluent, a series of gradient antimicrobial peptide solutions were prepared by a two-fold dilution method.
(§2) B. 100 μL of each polypeptide stock solution was taken and added to a 96-well cell culture plate, and then each strain solution to be tested (about 10^5/mL) was added in an equal volume to each well. A positive control (including a strain solution, but not including a polypeptide) and a negative control (including neither a strain solution nor a polypeptide). Strains to be tested include Escherichia coli Nissile 1917, Vibrio cholerae H1, Pseudomonas aeruginosa PAO1, F. nucleatum 25586, F. nucleatum 10953, Bifidobacterium uniformis 6597, Lactobacillus acidophilus 6075, Bifidobacterium longum 6194Lactobacillus rhamnosus 6141, and Streptococcus agalactiae H94.
(§3) C. The cell culture plate was incubated at a constant temperature of 37° C. for 20 h, and MIC was recorded when the turbidity was not observed by naked eyes at a bottom of a well. The strains all were purchased from the market.

[2] = tested on: Bifidobacterium longum 6194; format: cell-based; conditions: 20 h
Method: as §1, §2, §3

[3] = tested on: Lactobacillus rhamnosus 6141; format: cell-based; conditions: 20 h
Method: as §1, §2, §3

[4] = tested on: Bifidobacterium uniformis 6597; format: cell-based; conditions: 20 h
Method: as §1, §2, §3

[5] = tested on: Pseudomonas aeruginosa PAO1; format: cell-based; conditions: PAO1, 20 h
Method: as §1, §2, §3

[6] = tested on: Streptococcus agalactiae H94; format: cell-based; conditions: H94, 20 h
Method: as §1, §2, §3

[7] = tested on: Lactobacillus acidophilus 6075; format: cell-based; conditions: 20 h
Method: as §1, §2, §3

[8] = tested on: F. nucleatum-induced colorectal cancer; experiment: F. nucleatum-enhanced colorectal cancer animal model; format: in vivo, C57BL APC^min mouse; conditions: 20 mg/kg per day intragastrically for 7 d, compared with Fn+H2O group
Description: A. To verify the antibacterial effects of the F. nucleatum-specific antimicrobial peptides in vivo for F. nucleatum and especially the preventive effects of the F. nucleatum-specific antimicrobial peptides for F. nucleatum-induced diseases, an F. nucleatum-enhanced colorectal cancer animal model (i.e. the C57BL APC^min mouse orally administered with F. nucleatum) was adopted in this example. As shown in FIG. 20: C57BL APC^min mice were selected and intragastrically administered with F. nucleatum 25586 three times a week as an F. nucleatum intragastric administration group. Mice in a control group were intragastrically administered with an equal amount of PBS every week (PBS intragastric administration group). On the second day of intragastric administration in the first week, mice each were treated with 2.5% dextran sulfate sodium (DSS) consecutively for 3 d to improve the colonization of F. nucleatum. B. Mice were intragastrically administered with the antimicrobial peptide P8 or P11 for treatment in the sixth week, and mice in the control group were intragastrically administered with pure water. Each mouse was intragastrically administered at 20 mg/kg per day consecutively for 7 d. Then, mice were euthanized, and the tumor number and size were recorded.

F. nucleatum 25586 = format: cell-based, Fusobacterium nucleatum; conditions: 25586, 20 h
Method: as §1, §2, §3

F. nucleatum 10953 = format: cell-based, Fusobacterium nucleatum; conditions: 10953, 20 h
Method: as §1, §2, §3

other strains = experiment: Antimicrobial activity against strains other than F. nucleatum (bactericidal specificity); format: cell-based; conditions: test strains other than F. nucleatum
Method: as §1, §2, §3

SMILES | MIC Escherichia coli nissile1917 [1] [µM] | MIC Bifidobacterium longum 6194 [2] [µM] | MIC Lactobacterium rhamnosus 6141 [3] [µM] | MIC Bifidobacteriu muniformis 6597 [4] [µM] | MIC Pseudomonas aeruginosa PAO1 [5] [µM] | MIC Streptococcus agalactiae H94 [6] [µM] | MIC Lactobacillus acidophilus 6075 [7] [µM] | tumor diameter [8] | tumor number [8] | MIC Fusobacterium nucleatum 25586 (F. nucleatum 25586) [µM] | MIC Fusobacterium nucleatum 10953 (F. nucleatum 10953) [µM] | antimicrobial activity against other strains (other strains)
N=C(N)NCCC[C@H](NC(=O)CNC(=O)[C@@H]1CCCN1C(=O)[C@H](CCCNC(=N)N)NC(=O)[C@H](Cc1c[nH]c2ccccc12)NC(=O)[C@H](CCCCN)NC(=O)[C@H](Cc1c[nH]c2ccccc12)NC(=O)[C@H](CCCNC(=N)N)NC(=O)[C@H](Cc1c[nH]c2ccccc12)NC(=O)[C@H](CCCCN)NC(=O)[C@@H](N)Cc1c[nH]c2ccccc12)C(=O)N[C@@H](Cc1c[nH]c2ccccc12)C(=O)N[C@@H](CCCCN)C(=O)N[C@@H](Cc1c[nH]c2ccccc12)C(=O)N[C@@H](CCCNC(=N)N)C(=O)N[C@@H](Cc1c[nH]c2ccccc12)C(=O)N[C@@H](CCCCN)C(=O)N[C@@H](Cc1c[nH]c2ccccc12)C(=O)O [P11, WKWRWKWRPGRWKWRWKW] (H-WKWRWKWRPGRWKWRWKW-OH; N-terminus assumed) | 64 (≈ 179 µg/mL) | 16 (≈ 44.8 µg/mL) | >64 | 8 (≈ 22.4 µg/mL) | 32 (≈ 89.6 µg/mL) | 64 (≈ 179 µg/mL) | 32 (≈ 89.6 µg/mL) | relatively small | relatively small | 4 (≈ 11.2 µg/mL) | 16 (≈ 44.8 µg/mL) | weak antimicrobial activity
N=C(N)NCCC[C@H](NC(=O)CNC(=O)[C@@H]1CCCN1C(=O)[C@H](CCCNC(=N)N)NC(=O)[C@H](Cc1c[nH]c2ccccc12)NC(=O)[C@H](Cc1c[nH]cn1)NC(=O)[C@H](Cc1c[nH]c2ccccc12)NC(=O)[C@H](CCCNC(=N)N)NC(=O)[C@H](Cc1c[nH]c2ccccc12)NC(=O)[C@H](Cc1c[nH]cn1)NC(=O)[C@@H](N)Cc1c[nH]c2ccccc12)C(=O)N[C@@H](Cc1c[nH]c2ccccc12)C(=O)N[C@@H](Cc1c[nH]cn1)C(=O)N[C@@H](Cc1c[nH]c2ccccc12)C(=O)N[C@@H](CCCNC(=N)N)C(=O)N[C@@H](Cc1c[nH]c2ccccc12)C(=O)N[C@@H](Cc1c[nH]cn1)C(=O)N[C@@H](Cc1c[nH]c2ccccc12)C(=O)O [P8, WHWRWHWRPGRWHWRWHW] (H-WHWRWHWRPGRWHWRWHW-OH; N-terminus assumed) | >64 | >64 | >64 | >64 | >64 | >64 | 32 (≈ 90.7 µg/mL) | relatively small | relatively small | 8 (≈ 22.7 µg/mL) | 4 (≈ 11.3 µg/mL) | weak antimicrobial activity
N=C(N)NCCC[C@H](NC(=O)CNC(=O)[C@@H]1CCCN1C(=O)[C@H](CCCNC(=N)N)NC(=O)[C@H](Cc1c[nH]c2ccccc12)NC(=O)[C@H](CCC(=O)O)NC(=O)[C@H](Cc1c[nH]c2ccccc12)NC(=O)[C@H](Cc1c[nH]c2ccccc12)NC(=O)[C@H](CCC(=O)O)NC(=O)[C@H](Cc1c[nH]c2ccccc12)NC(=O)[C@H](CCCNC(=N)N)NC(=O)CNC(=O)[C@@H]1CCCN1C(=O)[C@H](CCCNC(=N)N)NC(=O)[C@H](Cc1c[nH]c2ccccc12)NC(=O)[C@H](CCC(=O)O)NC(=O)[C@@H](N)Cc1c[nH]c2ccccc12)C(=O)N[C@@H](Cc1c[nH]c2ccccc12)C(=O)N[C@@H](CCC(=O)O)C(=O)N[C@@H](Cc1c[nH]c2ccccc12)C(=O)O [P3] (H-WEWRPGRWEWWEWRPGRWEW-OH; N-terminus assumed) | >64 | >64 | >64 | >64 | >64 | >64 | >64 | – | – | >64 | >64 | –
N=C(N)NCCC[C@H](NC(=O)CNC(=O)[C@@H]1CCCN1C(=O)[C@H](CCCNC(=N)N)NC(=O)[C@H](Cc1c[nH]c2ccccc12)NC(=O)[C@H](CC(=O)O)NC(=O)[C@H](Cc1c[nH]c2ccccc12)NC(=O)[C@H](Cc1c[nH]c2ccccc12)NC(=O)[C@H](CC(=O)O)NC(=O)[C@H](Cc1c[nH]c2ccccc12)NC(=O)[C@H](CCCNC(=N)N)NC(=O)CNC(=O)[C@@H]1CCCN1C(=O)[C@H](CCCNC(=N)N)NC(=O)[C@H](Cc1c[nH]c2ccccc12)NC(=O)[C@H](CC(=O)O)NC(=O)[C@@H](N)Cc1c[nH]c2ccccc12)C(=O)N[C@@H](Cc1c[nH]c2ccccc12)C(=O)N[C@@H](CC(=O)O)C(=O)N[C@@H](Cc1c[nH]c2ccccc12)C(=O)O [P6] (H-WDWRPGRWDWWDWRPGRWDW-OH; N-terminus assumed) | 64 (≈ 186 µg/mL) | >64 | >64 | >64 | >64 | >64 | >64 | – | – | 64 (≈ 186 µg/mL) | 64 (≈ 186 µg/mL) | –
